Experimental data as given in article PMC12220852, “An adamantane‐based ligand as a novel chemical tool for thermosensory TRPM8 channel therapeutic modulation” (The Febs Journal, 2025).
Values joined by “and” are separate entries in the source; they are usually repeats but may differ in a detail not shown here. Equal entries are not always repeated.

What was measured:
Type in all cases: cell-based
hTRPV1 = target: T1, hTRPV1 (Homo sapiens, UniProt Q8NER1); test: Whole-cell patch-clamp of capsaicin-evoked currents in HEK293 cells expressing hTRPV1; conditions: −60 mV
T1 construct: expressed in transfected cells; host or cells: HEK293 (transient, Lipofectamine 3000)
Description: (§1) To evaluate receptor selectivity, we investigated the activity of compound 23 on recombinant hTRPV1 and hTRPA1 channels recombinantly expressed in HEK293 cells (Fig. 4). We choose these thermosensory channels because of their structural similarity and expression in peripheral nociceptive terminals. In addition, some ligand cross‐interaction within these channels has been reported.
Recording through patch‐clamp techniques was performed on HEK293 cells cultured in DMEM GlutaMax with 10% FBS and 1% P/S. The cell lines were authenticated following the standardization of STR Profiling guidelines (ANSI/ATCC ASN‐0002‐2022) using the CLA Identifier Plus PCR Amplification Kit (Thermo Fisher‐A44660) to analyze 16 highly variant human STRs. The cells were confirmed to be mycoplasma‐free. These cells were transiently transfected with plasmids encoding hTRPV1, hTRPM8, or hTRPA1 using Lipofectamine 3000. Transfected cells were seeded on 12 mm Ø glass coverslips treated with poly‐L‐lysine solution and recorded 2 days post‐transfection. […] Leak currents were not subtracted, and conductance was calculated using the equation: G = I/(V − V r), where I is the measured ionic current, V is the applied voltage, and V r is the reversal potential that for the ionic conditions used was set to 0 mV. […]

hTRPA1 = target: T2, hTRPA1 (Homo sapiens, UniProt O75762); test: Whole-cell patch-clamp of AITC-evoked currents in HEK293 cells expressing hTRPA1; conditions: −60 mV
T2 construct: expressed in transfected cells; host or cells: HEK293 (transient, Lipofectamine 3000)
Description: as §1
Recording through patch‐clamp techniques was performed on HEK293 cells cultured in DMEM GlutaMax with 10% FBS and 1% P/S. The cell lines were authenticated following the standardization of STR Profiling guidelines (ANSI/ATCC ASN‐0002‐2022) using the CLA Identifier Plus PCR Amplification Kit (Thermo Fisher‐A44660) to analyze 16 highly variant human STRs. The cells were confirmed to be mycoplasma‐free. These cells were transiently transfected with plasmids encoding hTRPV1, hTRPM8, or hTRPA1 using Lipofectamine 3000. Transfected cells were seeded on 12 mm Ø glass coverslips treated with poly‐L‐lysine solution and recorded 2 days post‐transfection. The intracellular pipette solution included (in mM) 150 NaCl, 3 MgCl2, 5 EGTA, and 10 HEPES, pH 7.2 with CsOH, while the extracellular solution contained (in mM) 150 NaCl, 6 CsCl, 1 MgCl2, 1.5 CaCl2, 10 glucose, and 10 HEPES, pH 7.4 with NaOH. An EPC‐10 amplifier with Patchmaster software was used in whole‐cell experiments. Patch pipettes, created from thin‐wall borosilicate capillary glass tubing, were pulled with a Micropipette puller to a final resistance of 2–8 MΩ when filled with the internal solution. Recordings were acquired at 10 kHz and low‐pass filtered at 3 kHz, discarding recordings with leak currents > 200pA or series resistance > 20 MΩ. In voltage‐clamp recordings, cells were held at a constant potential, and the application of modulators was carried out using a gravity‐driven perfusion system. […] Leak currents were not subtracted, and conductance was calculated using the equation: G = I/(V − V r), where I is the measured ionic current, V is the applied voltage, and V r is the reversal potential that for the ionic conditions used was set to 0 mV. […]

[1] = tested on: capsaicin‐induced excitability in murine nociceptors; test: Multielectrode array (MEA): capsaicin-induced firing in nociceptors; conditions: 1 μM compound, 0.5 μM capsaicin, P2/P1
Description: Additionally, we investigated the effect of compound 23 on capsaicin and AITC‐induced excitability in murine nociceptors. Employing an IC50 value of 1 μM for TRPV1 and 5 μM for TRPA1 of firing inhibition by compound 23 (Fig. 4), we interrogated its ability to modulate neuronal excitability. As for TRPM8, our experimental design involved a protocol of dual agonist pulses interspersed with a washing pulse to minimize agonist‐induced channel desensitization. Compound 23 was administered 1 min prior to and during the second agonist pulse.
Primary cultures of neonatal dorsal root ganglia were used for multielectrode array (MEA) and patch‐clamp experiments following established methodologies previously described. Neonatal dorsal root ganglia (DRGs) were obtained from Wistar rats (3–5 days old) and were isolated and digested with 0.25% (w/v) collagenase (type IA) in DMEM GlutaMax with 1% (v/v) penicillin/streptomycin (P/S) solution for 1 h at 37 °C in a 5% CO2 Thermo Scientific incubator. Following digestion, DRGs were mechanically dissociated and passed through a 100 μm cell strainer to obtain single‐cell suspensions. Suspensions were washed with DMEM GlutaMax with 10% (v/v) fetal bovine serum (FBS) and 1% (v/v) penicillin/streptomycin (P/S). Cells were then seeded in microelectrode array chambers coated with poly‐L‐lysine (8.3 μg·mL^−1) and laminin (5 μg·mL^−1). […]

T1 sequence (Q8NER1 whole entry): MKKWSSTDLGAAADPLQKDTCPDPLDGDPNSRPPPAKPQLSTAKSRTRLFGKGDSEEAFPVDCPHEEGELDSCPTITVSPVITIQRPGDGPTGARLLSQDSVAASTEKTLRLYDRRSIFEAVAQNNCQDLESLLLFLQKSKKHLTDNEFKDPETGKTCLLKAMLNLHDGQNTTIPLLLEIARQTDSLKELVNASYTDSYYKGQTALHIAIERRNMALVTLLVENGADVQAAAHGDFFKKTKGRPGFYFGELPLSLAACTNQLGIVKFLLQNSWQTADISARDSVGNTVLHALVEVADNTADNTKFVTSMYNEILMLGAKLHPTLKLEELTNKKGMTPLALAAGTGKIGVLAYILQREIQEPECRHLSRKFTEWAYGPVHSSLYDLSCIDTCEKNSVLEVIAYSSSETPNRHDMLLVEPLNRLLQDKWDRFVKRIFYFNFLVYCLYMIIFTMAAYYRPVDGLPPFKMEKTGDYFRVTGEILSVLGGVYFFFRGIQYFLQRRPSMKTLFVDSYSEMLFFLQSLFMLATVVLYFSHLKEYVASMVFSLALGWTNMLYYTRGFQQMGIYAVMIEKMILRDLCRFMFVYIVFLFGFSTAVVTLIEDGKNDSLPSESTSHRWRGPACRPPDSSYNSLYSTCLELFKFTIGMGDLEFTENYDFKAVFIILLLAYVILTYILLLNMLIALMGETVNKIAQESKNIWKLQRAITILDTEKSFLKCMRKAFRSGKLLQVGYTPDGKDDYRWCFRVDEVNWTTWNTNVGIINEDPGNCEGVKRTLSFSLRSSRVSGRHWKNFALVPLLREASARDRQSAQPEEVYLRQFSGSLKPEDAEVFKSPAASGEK
T2 sequence (O75762 whole entry): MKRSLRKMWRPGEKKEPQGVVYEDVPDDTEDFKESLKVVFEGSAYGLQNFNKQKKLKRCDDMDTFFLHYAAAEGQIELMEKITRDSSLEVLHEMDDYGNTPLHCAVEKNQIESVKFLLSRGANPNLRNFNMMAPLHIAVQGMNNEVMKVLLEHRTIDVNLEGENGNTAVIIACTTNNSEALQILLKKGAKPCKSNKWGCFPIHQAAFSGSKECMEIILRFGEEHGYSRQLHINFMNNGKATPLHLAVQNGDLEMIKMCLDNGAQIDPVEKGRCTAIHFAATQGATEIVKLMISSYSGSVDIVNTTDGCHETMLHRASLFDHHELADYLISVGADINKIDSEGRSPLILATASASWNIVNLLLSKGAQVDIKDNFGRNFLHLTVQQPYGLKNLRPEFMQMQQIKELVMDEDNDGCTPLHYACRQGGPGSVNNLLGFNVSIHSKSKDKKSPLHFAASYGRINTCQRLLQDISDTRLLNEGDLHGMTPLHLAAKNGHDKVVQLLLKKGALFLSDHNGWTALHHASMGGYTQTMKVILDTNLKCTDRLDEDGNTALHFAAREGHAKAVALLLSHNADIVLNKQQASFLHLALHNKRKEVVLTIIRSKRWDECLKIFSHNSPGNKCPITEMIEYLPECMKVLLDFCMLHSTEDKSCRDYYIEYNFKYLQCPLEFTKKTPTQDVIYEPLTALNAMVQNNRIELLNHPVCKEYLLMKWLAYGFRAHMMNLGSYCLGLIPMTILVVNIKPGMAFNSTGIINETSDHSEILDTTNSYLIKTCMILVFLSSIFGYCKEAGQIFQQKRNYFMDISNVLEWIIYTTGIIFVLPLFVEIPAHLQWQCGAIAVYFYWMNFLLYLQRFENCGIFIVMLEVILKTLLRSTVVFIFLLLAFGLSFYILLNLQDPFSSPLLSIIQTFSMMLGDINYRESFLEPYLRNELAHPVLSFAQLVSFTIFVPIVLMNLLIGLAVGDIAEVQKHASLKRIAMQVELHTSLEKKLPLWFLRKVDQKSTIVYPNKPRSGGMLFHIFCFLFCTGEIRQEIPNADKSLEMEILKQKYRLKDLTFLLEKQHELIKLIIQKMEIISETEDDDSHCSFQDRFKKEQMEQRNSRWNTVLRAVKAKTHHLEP

**Q.** Which “block of hTRPV1‐channel activity” value (hTRPV1; 1 μM compound, 0.5 μM capsaicin) does the source give for O=C(COC(=O)c1ccccc1-c1ccccc1)NC12CC3CC(CC(C3)C1)C2 [Compound 23, 2‐((3S,5S,7S)‐adamantan‐1‐ylamino)‐2‐oxoethyl [1,1′‐biphenyl]‐2‐carboxylate] here?
**A.** ≈ 50%

**Q.** What about the IC50 (hTRPV1; capsaicin-evoked current, n = 6, read-out: IC50 of hTRPV1 current blockade) of the same molecule?
**A.** 1100 nM and 1000 nM

**Q.** And the “block of hTRPA1‐evoked (AITC) current” value (hTRPA1; 5 μM compound, 60 μM AITC)?
**A.** ≈ 60%

**Q.** And the IC50 (hTRPA1; AITC-evoked current, n = 8, read-out: IC50 of hTRPA1 current blockade)?
**A.** 3040 ± 2010 nM

**Q.** What about the “attenuation of capsaicin‐induced firing” value [1] of the same molecule?
**A.** 30%
